In the CheMixHub ionic liquid set:

Experiment: xn = mol fraction of the nth substance listed

CCCC[n+]1ccn(C)c1.[Br-] + C[C@@H](O)[C@H](N)C(=O)O + O
viscosity [mPa·s], 101.3 kPa
Conditions	293.15 K	298.15 K	303.15 K	308.15 K	313.15 K
x2 = 0, x1 = 0.0007203	–	–	–	–	0.674
x2 = 0.0003632, x1 = 0.00072	1.028	0.918	0.825	0.748	0.682
x2 = 0.0003679, x1 = 0.001439	1.053	0.943	0.85	0.773	0.707
x2 = 0.0007261, x1 = 0.0007198	1.034	0.923	0.829	0.751	0.685
x2 = 0.0007318, x1 = 0.001438	1.059	0.948	0.854	0.776	0.71
x2 = 0.001087, x1 = 0.0007195	1.038	0.927	0.834	0.755	0.689
x2 = 0.001097, x1 = 0.001438	1.064	0.952	0.859	0.78	0.714
x2 = 0.001451, x1 = 0.0007192	1.043	0.932	0.838	0.76	0.693
x2 = 0.001461, x1 = 0.001437	1.07	0.957	0.863	0.785	0.718
x2 = 0.001813, x1 = 0.000719	1.048	0.936	0.843	0.764	0.698
x2 = 0.001828, x1 = 0.001437	1.075	0.961	0.868	0.789	0.723
x2 = 0.002175, x1 = 0.0007187	1.053	0.941	0.847	0.769	0.702
x2 = 0.002191, x1 = 0.001436	1.079	0.966	0.872	0.794	0.727
x2 = 0.002537, x1 = 0.0007185	1.058	0.946	0.852	0.773	0.707
x2 = 0.002557, x1 = 0.001436	1.085	0.97	0.877	0.798	0.732

CCCCCCCCCCCC[N+](C)(C)Cc1ccccc1.[Cl-] + C[C@H](N)C(=O)O + O
electrical conductivity [S/m], 101 kPa
Conditions	293.15 K	298.15 K	303.15 K	308.15 K
x2 = 0.0009017, x1 = 0.000273	0.0801	0.0901	0.101	0.112
x2 = 0.0009017, x1 = 0.0002923	0.0832	0.0935	0.104	0.117
x2 = 0.0009017, x1 = 0.00031	0.0859	0.0967	0.108	0.121
x2 = 0.0009017, x1 = 0.0003245	0.0882	0.0994	0.111	0.124
x2 = 0.0009018, x1 = 0.0001745	0.0636	0.0709	0.0786	0.0867
x2 = 0.0009018, x1 = 0.0002014	0.0686	0.0767	0.0852	0.0943
x2 = 0.0009018, x1 = 0.0002282	0.0731	0.0819	0.0911	0.101
x2 = 0.0009018, x1 = 0.0002515	0.0769	0.0862	0.096	0.107
x2 = 0.0009019, x1 = 5.732e-05	0.0227	0.0255	0.0283	0.0312
x2 = 0.0009019, x1 = 7.956e-05	0.0312	0.0349	0.0388	0.0427
x2 = 0.0009019, x1 = 0.0001004	0.0389	0.0437	0.0484	0.0533
x2 = 0.0009019, x1 = 0.0001231	0.0474	0.053	0.0588	0.0647
x2 = 0.0009019, x1 = 0.0001486	0.0565	0.0633	0.0701	0.077
x2 = 0.001773, x1 = 8.528e-05	0.033	0.037	0.041	0.0452
x2 = 0.001773, x1 = 0.0001054	0.0404	0.0453	0.0502	0.0553
x2 = 0.001773, x1 = 0.0001263	0.0481	0.0538	0.0597	0.0658
x2 = 0.001773, x1 = 0.00015	0.0564	0.063	0.0698	0.077
x2 = 0.001773, x1 = 0.000176	0.063	0.0702	0.0778	0.086
x2 = 0.001773, x1 = 0.0002016	0.0678	0.0756	0.084	0.0932
x2 = 0.001773, x1 = 0.0002266	0.0719	0.0805	0.0896	0.0995
x2 = 0.001773, x1 = 0.0002493	0.0756	0.0847	0.0946	0.105
x2 = 0.001773, x1 = 0.0002699	0.0789	0.0885	0.099	–
x2 = 0.001773, x1 = 0.0002888	0.082	0.0924	0.103	–
x2 = 0.001773, x1 = 0.0003053	0.0849	0.0956	0.107	–
x2 = 0.001773, x1 = 0.0003178	0.0873	0.0979	0.11	–
x2 = 0.001774, x1 = 6.278e-05	0.0246	0.0276	0.0306	0.0337

Cc1ccc(S(=O)(=O)O)cc1 + C[N+](C)(C)Cc1ccccc1.[Cl-]
101 kPa, x2 = 0.3
Conditions	electrical conductivity [S/m]	viscosity [mPa·s]
292.97 K	–	15200
298 K	–	12900
302.95 K	–	8733
307.99 K	–	5078
308.2 K	0.05721	–
313.02 K	–	2889
313.22 K	0.08258	–
317.95 K	–	1701
318.31 K	0.1275	–
323.05 K	–	1092
323.16 K	0.187	–
328.06 K	–	791
328.17 K	0.2562	–
332.98 K	–	452
333.27 K	0.345	–

O=C(O)C(=O)O + C[N+](C)(C)Cc1ccccc1.[Cl-]
101 kPa, x2 = 0.5
Conditions	electrical conductivity [S/m]	viscosity [mPa·s]
293.14 K	0.2104	–
293.17 K	–	1971
298.07 K	0.3284	–
298.09 K	–	1362
303.08 K	0.4611	–
303.11 K	–	714
308.09 K	0.6182	–
308.12 K	–	452
312.95 K	–	266.7
313.1 K	0.7996	–
317.96 K	–	197.3
318.18 K	1.025	–
323.06 K	–	166.6
323.19 K	1.246	–
327.98 K	–	58.6
328.11 K	1.505	–
332.99 K	–	27.7
333.03 K	1.774	–

CCCC[n+]1ccn(C)c1.[Br-] + C[NH2+]CCC=C1c2ccccc2CCc2ccccc21.[Cl-] + O
viscosity [mPa·s], 100 kPa
Conditions	288.15 K	298.15 K	308.15 K	318.15 K
x2 = 0, x1 = 0.0001802	1.149	0.916	0.751	0.634
x2 = 0, x1 = 0.0007203	1.153	–	–	0.64
x2 = 0, x1 = 0.00126	1.159	0.93	0.763	0.646
